Reference: US20170007561A1, “CONTEMPORANEOUS, HETEROGENEOUSLY-ORIENTED, MULTI-TARGETED THERAPEUTIC MODIFICATION AND/OR MODULATION OF DISEASE BY ADMINISTRATION OF SULFUR-CONTAINING, AMINO ACID-SPECIFIC SMALL MOLECULES” (BioNumerik Pharmaceuticals, Inc., priority 2014, published 2017)
Where two headings read alike, the source gives them in different places.

Experiments:
bovine TrxR = molecular target: T1, bovine TrxR (Bos taurus, UniProt O62768); experiment: TrxR NADPH oxidation assay without Trx (Reaction A); type: biochemical; settings: TrxR alone + NADPH, no Trx
T1 construct: purchased American Diagnostica
T1 sequence (O62768 1-499): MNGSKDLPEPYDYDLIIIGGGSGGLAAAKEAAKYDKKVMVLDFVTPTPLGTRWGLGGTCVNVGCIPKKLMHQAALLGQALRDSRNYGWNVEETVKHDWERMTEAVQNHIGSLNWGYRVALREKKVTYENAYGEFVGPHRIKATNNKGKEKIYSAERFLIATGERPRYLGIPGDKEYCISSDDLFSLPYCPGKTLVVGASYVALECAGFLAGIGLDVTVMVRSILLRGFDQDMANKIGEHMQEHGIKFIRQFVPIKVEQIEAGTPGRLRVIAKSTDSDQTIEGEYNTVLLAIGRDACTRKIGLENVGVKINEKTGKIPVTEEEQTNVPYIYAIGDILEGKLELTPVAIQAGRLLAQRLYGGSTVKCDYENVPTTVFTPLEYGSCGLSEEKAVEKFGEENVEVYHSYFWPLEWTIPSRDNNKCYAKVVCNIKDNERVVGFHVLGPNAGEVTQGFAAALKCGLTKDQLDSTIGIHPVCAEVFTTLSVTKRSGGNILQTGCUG

[1] = molecular target: T2, glutathione reductase (GR) (Homo sapiens, UniProt P00390); settings: cited from earlier work
T2 sequence (P00390 44-522): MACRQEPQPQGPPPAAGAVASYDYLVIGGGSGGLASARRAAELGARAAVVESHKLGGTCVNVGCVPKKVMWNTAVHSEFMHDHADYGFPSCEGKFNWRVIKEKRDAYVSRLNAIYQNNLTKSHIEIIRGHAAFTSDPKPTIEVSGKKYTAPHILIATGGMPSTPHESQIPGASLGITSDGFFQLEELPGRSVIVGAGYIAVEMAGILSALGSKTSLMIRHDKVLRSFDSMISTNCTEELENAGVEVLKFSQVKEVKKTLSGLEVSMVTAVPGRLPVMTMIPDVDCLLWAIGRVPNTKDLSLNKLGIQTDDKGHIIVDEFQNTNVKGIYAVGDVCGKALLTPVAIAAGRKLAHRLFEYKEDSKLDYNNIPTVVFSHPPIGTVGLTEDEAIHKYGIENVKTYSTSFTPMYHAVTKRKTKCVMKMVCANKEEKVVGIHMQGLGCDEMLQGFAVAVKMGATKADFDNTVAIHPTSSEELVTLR

[2] = tested on: mammalian thioredoxin reductase (TrxR); settings: cited from earlier work
[3] = tested on: bovine brain microtubule protein (α-/β-tubulin); experiment: Microtubule protein polymerization assay (OD350); type: biochemical; settings: for protection against monoaquocisplatin-induced loss of microtubule protein polymerization: preincubated with monoaquocisplatin (36 μM), mesna or cysteine 200 μM; for effect on microtubule protein polymerization: sodium chloride 32 mM control
ErbB-2 = ErbB-2 (Homo sapiens, UniProt P04626); design: key: the “+” and “−” symbols signify the ability and inability to activate each of the ErbB receptors, respectively; the “+” and “−” symbols signify the ability and inability to activate each of the ErbB receptors, respectively; settings: cited from earlier work
ErbB-4 = ErbB-4 (Homo sapiens, UniProt Q15303); design: key: the “+” and “−” symbols signify the ability and inability to activate each of the ErbB receptors, respectively; the “+” and “−” symbols signify the ability and inability to activate each of the ErbB receptors, respectively; settings: cited from earlier work
ErbB-4, sequence (Q15303 26-1308, species assumed): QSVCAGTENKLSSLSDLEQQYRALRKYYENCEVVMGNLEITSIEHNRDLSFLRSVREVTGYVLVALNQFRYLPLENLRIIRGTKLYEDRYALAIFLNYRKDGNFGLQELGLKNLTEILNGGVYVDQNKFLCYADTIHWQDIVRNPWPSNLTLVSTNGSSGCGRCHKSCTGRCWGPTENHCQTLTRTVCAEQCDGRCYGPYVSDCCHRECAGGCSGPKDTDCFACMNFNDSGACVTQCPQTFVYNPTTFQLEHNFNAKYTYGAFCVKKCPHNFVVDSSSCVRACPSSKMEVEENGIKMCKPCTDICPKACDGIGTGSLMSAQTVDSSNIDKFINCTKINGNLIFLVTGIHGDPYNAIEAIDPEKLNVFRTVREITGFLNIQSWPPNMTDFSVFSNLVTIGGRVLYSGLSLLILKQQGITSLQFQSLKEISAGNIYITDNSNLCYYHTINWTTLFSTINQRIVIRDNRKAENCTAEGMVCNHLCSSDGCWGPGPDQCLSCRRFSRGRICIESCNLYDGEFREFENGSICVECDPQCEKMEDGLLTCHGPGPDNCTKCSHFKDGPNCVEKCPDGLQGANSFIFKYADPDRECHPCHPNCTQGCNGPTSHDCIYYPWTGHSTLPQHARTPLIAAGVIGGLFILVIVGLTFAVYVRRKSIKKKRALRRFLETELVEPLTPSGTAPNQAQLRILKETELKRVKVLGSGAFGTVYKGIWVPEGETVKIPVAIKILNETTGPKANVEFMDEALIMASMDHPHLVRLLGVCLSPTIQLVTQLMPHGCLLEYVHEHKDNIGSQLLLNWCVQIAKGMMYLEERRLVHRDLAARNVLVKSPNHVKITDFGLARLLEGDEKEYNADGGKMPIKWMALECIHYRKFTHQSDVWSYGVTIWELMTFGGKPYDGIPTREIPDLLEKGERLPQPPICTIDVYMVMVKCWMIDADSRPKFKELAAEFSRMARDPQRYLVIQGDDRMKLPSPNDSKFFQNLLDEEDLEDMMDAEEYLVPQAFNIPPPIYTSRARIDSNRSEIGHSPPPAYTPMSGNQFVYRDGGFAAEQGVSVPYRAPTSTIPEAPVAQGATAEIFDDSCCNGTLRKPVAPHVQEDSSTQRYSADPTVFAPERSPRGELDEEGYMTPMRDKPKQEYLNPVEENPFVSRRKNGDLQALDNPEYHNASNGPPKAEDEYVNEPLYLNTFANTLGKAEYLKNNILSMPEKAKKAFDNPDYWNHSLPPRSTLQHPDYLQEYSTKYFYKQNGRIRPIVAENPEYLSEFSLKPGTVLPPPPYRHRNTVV

ErbB-1 = ErbB-1 (Homo sapiens, UniProt P00533); settings: cited from earlier work
ErbB-3 = ErbB-3 (Homo sapiens, UniProt P21860); design: key: the “+” and “−” symbols signify the ability and inability to activate each of the ErbB receptors, respectively; the “+” and “−” symbols signify the ability and inability to activate each of the ErbB receptors, respectively; settings: cited from earlier work
TrxR/Trx system = molecular target: T3, TrxR/Trx system (Homo sapiens, UniProt P10599); experiment: TrxR/Trx NADPH oxidation assay; type: biochemical; settings: increasing concentrations of test substance
T3 construct: purchased Sigma (Trx); American Diagnostica (bovine TrxR)
T3 sequence (P10599 1-105): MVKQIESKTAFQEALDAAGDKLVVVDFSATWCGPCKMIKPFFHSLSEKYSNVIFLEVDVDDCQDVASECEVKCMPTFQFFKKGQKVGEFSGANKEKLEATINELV
Excerpt: (Note: error bars are small and may be obscured by the symbols). […] (Note: error bars were omitted but assays were run in quadruplicate with typical errors of 5-8% between individual replicates). […] Panel D: Initial velocity reaction rates corresponding to progress curves shown in Panel C. With time, Trx-mesna and Trx-GSH are converted back to apo-Trx by Trx reductase (see also, FIG. 69, Panel E).

T790M EGFR kinase = T790M EGFR kinase (Homo sapiens, UniProt P00533, T790M); experiment: EGFR kinase assay (ADP-glo, polyGT substrate), T790M mutant; type: biochemical; settings: for IC50: read-out: IC50, inhibition of T790M EGFR kinase; for effect on Erlotinib inhibition of T790M EGFR kinase activity: heteroconjugate in combination with Erlotinib, 10 μM and/or 100 μM ATP
[4] = single oral dose of 100 mg to healthy volunteers; cited from earlier work

Molecule: NC(CSSCCS(=O)(=O)O)C(=O)NCC(=O)O (stereo not drawn) [MSSCG, mesna-cysteinyl glycine disulfide]
- NADPH Oxidation, Reaction A (bovine TrxR; disulfide 0.5 mM): 0.2 ± 0.04 nmol/min/mL

Molecule: N.N.[Cl][Pt][Cl] [cisplatin]
- Inhibition of GR [1]: not GR
- Inhibition of TrxR [2]: irreversibly inhibited TrxR

Molecule: N.N.[Cl][Pt+2][Cl] [transplatin]
- Inhibition of GR [1]: not GR
- Inhibition of TrxR [2]: irreversibly inhibited TrxR

Molecule: N[C@@H](CCC(=O)O)C(=O)O [glutamate, reference compound]
- protection against monoaquocisplatin-induced loss of microtubule protein polymerization [3]: not seen

Molecule: betacellulin: growth factor ligand of ErbB receptors
- ability to activate ErbB-2 (ErbB-2): −
- ability to activate ErbB-4 (ErbB-4): +
- ability to activate ErbB-1 (ErbB-1): +
- ability to activate ErbB-3 (ErbB-3): −

Molecule: O=P1(NCCCl)OCCCN1CCCl (stereo not drawn) [ifosfamide]
- Inhibition of TrxR [2]: inhibited TrxR

Molecule: N.N.O.[Cl][Pt+] [monoaquocisplatin, reference compound]
- effect of extended exposure on microtubule protein polymerization ([3]; monoaquocisplatin 36 μM): loss of microtubule protein's ability to polymerize

Molecule: N[C@@H](CCC(=O)N[C@@H](CSSCCS(=O)(=O)O)C(=O)NCC(=O)O)C(=O)O [MSSG, mesna-glutathione disulfide]
- NADPH oxidation by TrxR and Trx (TrxR/Trx system): increases
- NADPH Oxidation, Reaction A (bovine TrxR; disulfide 0.5 mM): 0.3 ± 0.02 nmol/min/mL

Molecule: O=C(O)CCCc1ccc(N(CCCl)CCCl)cc1 [chlorambucil]
- Inhibition of GR [1]: not GR
- Inhibition of TrxR [2]: irreversibly inhibited TrxR in a concentration- and time-dependent manner

Molecule: TGF-α: growth factor ligand of ErbB receptors
- ability to activate ErbB-2 (ErbB-2): −
- ability to activate ErbB-4 (ErbB-4): −
- ability to activate ErbB-3 (ErbB-3): −

Molecule: NC(CSSCCS(=O)(=O)O)C(=O)NCC(=O)O (stereo not drawn) [Mesna-Cysteinylglycine]
- IC50 (T790M EGFR kinase; 10 μM ATP): 510 ± 10 µM
- IC50 (T790M EGFR kinase; 100 μM ATP): 410 ± 50 µM
- effect on Erlotinib inhibition of T790M EGFR kinase activity (T790M EGFR kinase): effectively potentiated

Molecule: EGF: growth factor ligand of ErbB receptors
- ability to activate ErbB-2 (ErbB-2): −
- ability to activate ErbB-4 (ErbB-4): −
- ability to activate ErbB-3 (ErbB-3): −

Molecule: COc1cccc2c1C(=O)c1c(O)c3c(c(O)c1C2=O)C[C@@](O)(C(C)=O)C[C@@H]3O[C@H]1C[C@H](N)[C@H](O)[C@H](C)O1 [daunorubicin]
- Inhibition of TrxR [2]: not inhibitors of TrxR

Molecule: CS(=O)(=O)OCCCCOS(C)(=O)=O [busulfan]
- Inhibition of GR [1]: not GR
- Inhibition of TrxR [2]: irreversibly inhibited TrxR in a concentration- and time-dependent manner

Molecule: C#Cc1cccc(Nc2ncnc3cc(OCCOC)c(OCCOC)cc23)c1 [Erlotinib, reference compound]
- Cmax [4]: 1390 ng/mL

Molecule: O=NN(CCCl)C(=O)NCCCl [carmustine]
- Inhibition of GR [1]: can inhibit both GR and Trx
- Inhibition of TrxR [2]: can inhibit both GR and Trx

Molecule: NC(CSSCCS(=O)(=O)O)C(=O)NC(CCC(=O)O)C(=O)O (stereo not drawn) [Mesna-Cysteinylglutamate]
- IC50 (T790M EGFR kinase; 10 μM ATP): 1090 ± 190 µM
- IC50 (T790M EGFR kinase; 100 μM ATP): 1050 ± 80 µM
- effect on Erlotinib inhibition of T790M EGFR kinase activity (T790M EGFR kinase): effectively potentiated

Molecule: HB-EGF: growth factor ligand of ErbB receptors
- ability to activate ErbB-2 (ErbB-2): −
- ability to activate ErbB-4 (ErbB-4): +
- ability to activate ErbB-1 (ErbB-1): +
- ability to activate ErbB-3 (ErbB-3): −

Molecule: N.N.O=C([O-])C1(C(=O)[O-])CCC1.[Pt+2] [carboplatin]
- Inhibition of GR [1]: could not inhibit either TrxR or GR
- Inhibition of TrxR [2]: could not inhibit either TrxR or GR

Molecule: NC(CSSCCS(=O)(=O)O)C(=O)NC(CCC(=O)O)C(=O)O (stereo not drawn) [MSSCE, mesna-cysteinyl glutamate disulfide]
- NADPH Oxidation, Reaction A (bovine TrxR; disulfide 0.5 mM): 0.3 ± 0.02 nmol/min/mL

Molecule: N[C@@H](CS)C(=O)O [cysteine, reference compound]
- effect alone on microtubule protein polymerization ([3]; in the absence of monoaquocisplatin): neither mesna nor cysteine alone (in the absence of monoaquocisplatin) had any effect

Molecule: NC(CSSCCS(=O)(=O)O)C(=O)O (stereo not drawn) [Mesna-Cysteine]
- IC50 (T790M EGFR kinase; 10 μM ATP): 3760 ± 260 µM
- IC50 (T790M EGFR kinase; 100 μM ATP): 3030 ± 280 µM
- effect on Erlotinib inhibition of T790M EGFR kinase activity (T790M EGFR kinase): effectively potentiated

Molecule: O=P1(N(CCCl)CCCl)NCCCO1 (stereo not drawn) [cyclophosphamide]
- Inhibition of GR [1]: not GR
- Inhibition of TrxR [2]: irreversibly inhibited TrxR in a concentration- and time-dependent manner

Molecule: Insulin: positive control disulfide substrate of Trx [reference compound]
- NADPH Oxidation, Reaction A (bovine TrxR; insulin 86 μM): 0.3 ± .03 nmol/min/mL

Molecule: N[C@@H](Cc1ccc(N(CCCl)CCCl)cc1)C(=O)O [melphalan]
- Inhibition of GR [1]: not GR
- Inhibition of TrxR [2]: irreversibly inhibited TrxR in a concentration- and time-dependent manner

Molecule: O=C1[O][Pt]2([NH][C@@H]3CCCC[C@H]3[NH]2)[O]C1=O [oxaliplatin]
- Inhibition of GR [1]: not GR
- Inhibition of TrxR [2]: irreversibly inhibited TrxR

Molecule: [Cl-].[Na+] [sodium chloride]
- effect on microtubule protein polymerization [3]: did not inhibit
- effect on microtubule protein polymerization ([3]; listed as NaCl): no effect

Molecule: CC1=C(/C=C/C(C)=C/C=C/C(C)=C\C(=O)O)C(C)(C)CCC1 [13-cis-retinoic acid]
- Inhibition of TrxR [2]: irreversible inhibition of TrxR

Molecule: neuregulin 1
- ability to activate ErbB-2 (ErbB-2): −
- ability to activate ErbB-4 (ErbB-4): +
- ability to activate ErbB-1 (ErbB-1): −
- ability to activate ErbB-3 (ErbB-3): +

Molecule: amphiregulin: growth factor ligand of ErbB receptors
- ability to activate ErbB-2 (ErbB-2): −
- ability to activate ErbB-4 (ErbB-4): −
- ability to activate ErbB-1 (ErbB-1): +
- ability to activate ErbB-3 (ErbB-3): −

Molecule: NC(=O)CC[C@H](N)C(=O)O [glutamine, reference compound]
- protection against monoaquocisplatin-induced loss of microtubule protein polymerization [3]: not seen

Molecule: epiregulin: growth factor ligand of ErbB receptors
- ability to activate ErbB-2 (ErbB-2): −
- ability to activate ErbB-4 (ErbB-4): +
- ability to activate ErbB-1 (ErbB-1): +
- ability to activate ErbB-3 (ErbB-3): −

Molecule: NC(CCC(=O)NC(CSSCCS(=O)(=O)O)C(=O)NCC(=O)O)C(=O)O (stereo not drawn) [Mesna-Glutathione]
- IC50 (T790M EGFR kinase; 10 μM ATP): 1280 ± 290 µM
- IC50 (T790M EGFR kinase; 100 μM ATP): 1170 ± 10 µM
- effect on Erlotinib inhibition of T790M EGFR kinase activity (T790M EGFR kinase): effectively potentiated

B1: epigen: growth factor ligand of ErbB receptors (protein, UniProt Q6UW88 23-154, looked up)
Epigen: AAVTVTPPITAQQGNWTVNKTEADNIEGPIALKFSHLCLEDHNSYCINGACAFHHELEKAICRCFTGYTGERCEHLTLTSYAVDSYEKYIAIGIGVGLLLSGFLVIFYCYIRKRCLKLKSPYNVCSGERRPL
- ability to activate ErbB-2 (ErbB-2): −
- ability to activate ErbB-4 (ErbB-4): −
- ability to activate ErbB-1 (ErbB-1): +
- ability to activate ErbB-3 (ErbB-3): −
